Measured values taken from PubChem BioAssay (NCI).
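96-well plates; 48 h exposure; 5 concentrations. Endpoints by linear interpolation between flanking doses. Not reached: highest tested concentration assigned. Definition used: TGI = concentration required for complete inhibition of growth.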

Tests used:
Assay in all cases: NCI-60 cell line screen, 48 h
A549 NSCLC = tested on: A549 NSCLC
HOP-62 NSCLC = tested on: HOP-62 NSCLC
MDA-MB-231 breast = tested on: MDA-MB-231 breast
MDA-MB-435 = tested on: MDA-MB-435
NCI-H23 lung = tested on: NCI-H23 lung
SK-MEL-28 melanoma = tested on: SK-MEL-28 melanoma
SK-MEL-5 melanoma = tested on: SK-MEL-5 melanoma
SK-OV-3 ovarian = tested on: SK-OV-3 ovarian
A498 renal = tested on: A498 renal
SF-539 CNS = tested on: SF-539 CNS

| Structure (SMILES) | TGI (A549 NSCLC) [µM] | TGI (HOP-62 NSCLC) [µM] | TGI (MDA-MB-231 breast) [µM] | TGI (MDA-MB-435) [µM] | TGI (NCI-H23 lung) [µM] | TGI (SK-MEL-28 melanoma) [µM] | TGI (SK-MEL-5 melanoma) [µM] | TGI (SK-OV-3 ovarian) [µM] | TGI (A498 renal) [µM] | TGI (SF-539 CNS) [µM] |
| --- | --- | --- | --- | --- | --- | --- | --- | --- | --- | --- |
| COc1ccc(/C=N/NC(=O)c2cnc3[nH]c(=O)n(C)c(=O)c3c2)cc1 | > 100 | > 100 | 86.8 | > 100 | > 100 | > 100 | > 100 | > 100 |  |  |
| Cc1nnc(-n2c(O)cc(=O)n(-c3ccccc3)c2=S)nc1/C=C/c1ccc(N(C)C)cc1 | > 59 | > 100 | > 55.7 | 23.8 | 69.4 | > 50.6 | 21.9 | > 72 | > 55 |  |
| Cc1ccc(S(=O)(=O)NC(=O)NC(Cc2ccc(O)c(O)c2)C(=O)O)cc1 (stereo not given) | > 100 | > 100 | > 100 | > 100 | > 100 | > 100 | > 100 |  | > 100 |  |
| CC1CCc2sc3[nH]c(=S)n(-c4ccccc4)c(=O)c3c2C1 (stereo not given) | > 100 | > 100 | > 100 | > 100 | > 100 | > 100 | > 100 | > 100 |  |  |
| c1ccc2nc(CCC3CCCCN3)ccc2c1 (stereo not given) | > 100 | > 100 | > 100 | > 100 | > 100 | > 100 | > 100 | > 100 | > 100 |  |
| CCCCCCC(C)OC(=O)/C=C(\CC(=O)OC(C)CCCCCC)C(=O)OC(C)CCCCCC (stereo not given) | > 100 | > 100 |  |  | > 100 | > 100 | > 100 | > 100 | > 100 | > 100 |
| CCN(CC)CCCC(C)NC(=O)c1ccc2c(c1)C(=O)c1ccccc1C2=O (stereo not given) | 57.4 | 69.9 |  |  | 24.2 | 29.8 | 28.4 | > 93.6 | 42.3 | 36 |
| C=C1C(=O)O[C@@H]2[C@H](O)[C@@H](C)[C@@H]3C=CC(=O)[C@@]3(C)[C@H](OC(=O)C=C(C)C)[C@H]12 | 10 | 11.4 |  |  | 2.88 | 1.81 | 3.78 | 7.91 | 4.65 | 0.596 |
| COc1ccccc1NC(=O)O/N=C(/Cl)C(C)C | 34.4 | 17.1 | 18.3 |  | 28.8 | 27.8 | 24.1 | 32.7 | 29.9 | 35.9 |
| C=C(C)[C@@H]1CCC2=C[C@H](CC(C)=CC3=CC(C)=C(O3)[C@@H]1OC)OC2=O | > 100 |  | 87.3 | > 100 |  | > 100 | > 100 |  | > 100 | > 100 |
| Cc1cc2nc(N3C(=O)/C(=C/c4ccc(Cl)cc4)N=C3c3ccccc3)sc2cc1C | > 100 | > 100 | > 100 | 30.7 |  | > 100 | 43.6 | > 100 | 85.9 | > 100 |
| COc1ccc(-c2cc(-c3cc(F)c(Cl)cc3Cl)on2)cc1OC | > 100 | > 100 | > 100 | 16.9 | > 100 | > 100 | 43.3 | > 100 |  | 27 |
| CCN(CC)C(=O)N1CN(c2ccccc2)C2(CCN(CCCSc3ccc(F)cc3)CC2)C1=O | > 100 |  |  | 42.5 | 22.4 | 37.1 | 12.3 | 63 |  | 20.7 |
| O=C1ON=C2C3CC4CC12CC1(C3)C(=O)ON=C41 | > 100 | > 100 | > 100 | > 100 | > 100 | > 100 | > 100 |  | > 100 | > 100 |
| O=C1CCCC2=C1CC1=C(CCCC1=O)N2c1ccccc1 | > 100 |  |  |  | > 100 | > 100 | > 100 | > 100 | > 100 | > 100 |
| CCOC(=O)C(C(=O)OCC)=C1NC2(c3ccccc3Nc3ccc(C)cc32)C(C(=O)OC)S1 (stereo not given) | > 100 | > 100 |  | > 100 | > 100 | > 100 | 66.9 | > 100 | > 100 | > 100 |
| Oc1cccc(-c2cn3cc(C(F)(F)F)ccc3n2)c1 | > 100 | > 100 | > 100 | > 100 | > 100 | > 100 | 56.5 | > 100 | > 100 |  |
| COC(=O)[C@H](Cc1ccccc1)NP(=O)(O)OCC1C=CC(n2cc(C)c(=O)[nH]c2=O)O1 (stereo not given in full) | > 100 | > 100 | > 100 | > 100 | > 100 |  | > 100 | > 100 |  |  |
| CC(C)C1CC[C@H](C)C[C@@H]1OC(=O)C(C(=O)O[C@H]1C[C@@H](C)CCC1C(C)C)C(O)[C@@H]1OC(C)(C)O[C@H]1C1COC(C)(C)O1 (stereo not given in full) | 66.6 | 37.5 | 36.2 | 32 | 31.9 | 35.4 | 29.2 | 65.4 |  | 49.5 |
| CC(=O)OCC1OC(O/C=C(\CN=[N+]=[N-])C(C)=O)C(OC(C)=O)C(OC(C)=O)C1OC(C)=O (stereo not given) | 46.2 | 70.7 | 27.7 | 26.7 | 25.6 | 89.7 | 26.2 | > 100 | 47.5 |  |
| COc1cc(C2c3cc4c(cc3[C@@H](Nc3cccc([N+](=O)[O-])c3)C3COC(=O)[C@H]23)OCO4)cc(OC)c1O (stereo not given in full) | 4.38 | 3.31 |  |  | 4.65 | > 100 | 7.87 | 9.67 | 4.47 | 4.02 |
| c1ccc(N=C2SC3=NCCN3C2=Nc2ccccc2)cc1 |  | 52.9 | 60.5 | 43 | 52.9 | 35 | 28.9 | > 100 | 36.4 |  |
| CC(Cc1ccccc1)NC1=NCCO1 (stereo not given) | > 100 | > 100 | 30.1 |  | 51 |  | > 100 | > 100 | 85.5 | 30.3 |
